Columns and labels:
Format in all cases: physicochemical
[1] = Particle size distribution by Malvern, conditioning studies untreated versus treated
Procedure: Fluticasone propionate was conditioned in a drug-addition vessel. A 5% concentration of fluticasone propionate in HFA134a was treated at 40° C. for 48-72 h with a gentle rocking motion. HFA134a was vented and the remaining material was assessed in regard to its amorphous content.

[2] = Scanning electron microscope images pre- and post-conditioning; details: post-conditioning versus pre-conditioning, Experiments 1 and 2
Excerpt: FIGS. 1 and 2 show scanning electron microscope images of fluticasone propionate, pre-conditioning (the first image in each Figure) and post-conditioning (the second image in each Figure). FIGS. 1 and 2 are taken from Experiments 1 and 2 in Table 1 and show scanning electron microscopic images of fluticasone propionate, pre-conditioning (the first image in each Figure) and post-conditioning (the second image in each Figure).

[3] = Particle size distribution by Malvern, conditioning studies untreated versus treated; remark: listed apart in the source
[4] = Amorphous content after conditioning in HFA134a
Procedure: Heating is performed at a temperature of 30-50° C., more preferably at a temperature of 35-45° C., and most preferably at a temperature of 38-42° C. The heating step, in the presence of the propellant, is a conditioning step for the API, in order to reduce the amorphous content of the API, without affecting the PSD. Amorphous content may be determined by solution microcalorimetry. Fluticasone propionate was conditioned in a drug-addition vessel. A 5% concentration of fluticasone propionate in HFA134a was treated at 40° C. for 48-72 h with a gentle rocking motion. HFA134a was vented and the remaining material was assessed in regard to its amorphous content.

[5] = Experiment 1, 5% in HFA134a, 40° C. for 48-72 h (with agitation)
[6] = Experiment 1, 5% in HFA134a, 40° C. for 72 h (with agitation)
[7] = Experiment 2, 5% in HFA134a, 40° C. for 48-72 h (with agitation)
[8] = Experiment 1, Control (untreated)
[9] = Experiment 2, Control (untreated)

- Particle size distribution by Malvern D10 [1, 5]: 0.6 μm
- Particle size distribution by Malvern D90 [1, 5]: 3.2 μm
- Particle size distribution by Malvern D10 [1, 6]: 0.6 μm
- Particle size distribution by Malvern D90 [1, 6]: 2.9 μm
- Particle size distribution by Malvern D10 [1, 7]: 0.7 μm
- Particle size distribution by Malvern D50 [1, 7]: 2.0 μm
- Crystallinity by SEM images [2]: increased crystallinity
- Particle size distribution by Malvern D50 [3, 5]: 1.5 μm
- Particle size distribution by Malvern D50 [3, 6]: 1.4 μm
- Particle size distribution by Malvern D10 [3, 8]: 0.6 μm
- Particle size distribution by Malvern D50 [3, 8]: 1.5 μm
- Particle size distribution by Malvern D90 [3, 8]: 3.2 μm
- Particle size distribution by Malvern D90 [3, 7]: 4.7 μm
- Particle size distribution by Malvern D10 [3, 9]: 0.6 μm
- Particle size distribution by Malvern D50 [3, 9]: 1.7 μm
- Particle size distribution by Malvern D90 [3, 9]: 5.0 μm
- Amorphous content [4, 5]: 2.3%
- Amorphous content [4, 6]: 1.1%
- Amorphous content [4, 8]: 7.2%
- Amorphous content [4, 7]: 1.1%
- Amorphous content [4, 9]: 2.3%
Structure (SMILES): CCC(=O)O[C@]1(C(=O)SCF)[C@H](C)C[C@H]2[C@@H]3C[C@H](F)C4=CC(=O)C=C[C@]4(C)[C@@]3(F)[C@@H](O)C[C@@]21C [fluticasone propionate]
